The values below are quoted from earlier work in publication PMC4704022, “Insights on FXR selective modulation. Speculation on bile acid chemical space in the discovery of potent and selective agonists” (Scientific Reports, 2016).

pEC50: −log10 of the molar value.

Data set [1] concerns FXR. Further details: method as in PMID 25247751. The following applies: read-out: EC50, FXR transactivation; cited from earlier work.
Data set [2] concerns OSTα expression. Details: method as in PMID 25247751. The following applies: compared with 6-ECDCA; cited from earlier work.
The subject of data set [3] is FXR. Further details: method as in PMID 10360171. The settings on record: cited from earlier work.

Consider `C[C@H](CCCOS(=O)(=O)O)[C@H]1CCC2C3C(CC[C@@]21C)[C@@]1(C)CCCC[C@H]1C[C@H]3O` (stereo partly drawn) [compound 5, 7α-hydroxy-5β-cholan-24-sulfate], for which the pEC50 in data set [1] is around 5.05. In data set [2], the “Potency in inducing expression of OSTα (in words)” value is listed as “comparable to that of 6-ECDCA”.

In the case of `C[C@H](CCC(=O)O)[C@H]1CC[C@H]2[C@@H]3CC[C@@H]4C[C@H](O)CC[C@]4(C)[C@H]3C[C@H](O)[C@]12C` [deoxycholic acid], the “FXR ligand strength relative to CDCA (in words)” value in data set [3] is recorded as “weaker natural ligands”.

On to `C[C@H](CCC(=O)O)[C@H]1CC[C@H]2[C@@H]3CC[C@@H]4C[C@H](O)CC[C@]4(C)[C@H]3CC[C@]12C` [lithocholic acid], for which the “FXR ligand strength relative to CDCA (in words)” value in data set [3] is on record as “weaker natural ligands”.
